Measured values reported in patent US9012466B2, “Substituted tricyclic pyrazolo-pyrimidine compounds” (ArQule, Inc., priority 2013, dated 2015).

How the values were obtained:
Full-length inactive BTK = Full-length inactive BTK (Homo sapiens, UniProt Q06187); assay: BTK Kinase Activity Assay; format: biochemical; details: AlphaScreen, 25 μM ATP, 30 minute pre-incubation
Description: BTK Kinase Activity Assay
After a 30 minute pre-incubation at room temperature, the kinase reaction was initiated by the addition of 5 μl of an activation mixture diluted in assay buffer containing biotinylated PLCγ2 peptide, DOPS/DOPC, PtdIns(3,4,5)P3, and ATP for final concentrations of 100 nM biotinylated PLCγ2, 5.5 μM DOPS, 5.5 μM DOPC, 0.5 μM PtdIns(3,4,5)P3, and 25 μM ATP. The plates were incubated for 60 minutes at room temperature. The reactions were stopped in the dark by the addition of 10 μl stop/detection mixture prepared in assay buffer containing EDTA and AlphaScreen™ Streptavidin Donor and anti-pTYR100 Acceptor beads. The final concentrations were 10 mM EDTA and 500 ng/well of both AlphaScreen™ (Amplified Luminescent Proximity Homogeneous Assay) technology donor and acceptor beads. Assay plates were incubated for 60 minutes at room temperature in the dark, and the plates were read on a Perkin Elmer Envision Multilabel plate reader (excitation wavelength: […], emission wavelength: 570 nm).

Full-length BTKC481S = molecular target: T1, Full-length BTKC481S (Homo sapiens, UniProt Q06187, C481S); assay: BTKC481S Kinase Activity Assay; format: biochemical; details: AlphaScreen, 60 μM ATP; test concentration not given
T1 construct: Full-length BTKC481S was diluted in assay buffer
Description: BTKC481S Kinase Activity Assay
Test inhibitors and controls (Staurosporine) were prepared in 10% DMSO at 10-fold the desired final concentration, and added to each well of a reaction plate (Corning 96-well half-area solid white nonbinding surface plate) in a volume of 2.5 μl. Full-length BTKC481S was diluted in assay buffer (50 mM Tris, pH 8.0, 0.02 mg/ml BSA, 10 mM MgCl2, 1 mM EGTA, 10% glycerol, 1 mM DTT, 1 mM β-glycerophosphate, and 1 mM NaF) and added to each well in a volume of 17.5 μl for a final concentration in the 25 μl reaction of 10 nM. After a 30 minute pre-incubation at room temperature, the kinase reaction was initiated by the addition of 5 μl of an activation mixture diluted in assay buffer containing biotinylated PLCγ2 peptide, and ATP for final concentrations of 125 nM biotinylated PLCγ2, and 60 μM ATP. The plates were incubated for 60 minutes at room temperature. The reactions were stopped in the dark by the addition of 10 μl stop/detection mixture prepared in assay buffer containing EDTA, Staurosporine and AlphaScreen™ Streptavidin Donor and anti-pTYR100 Acceptor beads. The final concentrations were 15 mM EDTA, 1 μM Staurosporine and 500 ng/well of both AlphaScreen™ (Amplified Luminescent Proximity Homogeneous Assay) technology donor and acceptor beads. Assay plates were incubated for 60 minutes at room temperature in the dark, and the plates were read on a Perkin Elmer Envision Multilabel plate reader (excitation wavelength: […], emission wavelength: 570 nm).

TMD-8 = assay: Anti Proliferation Assay (MTS), TMD-8; format: cell-based; details: Homo sapiens, TMD8, TMD-8 cells, 72 hours treatment
Description: (§1) Cell survival was determined by the MTS assay. Briefly, cells were plated in a 96-well plate at 2,000-10,000 cells per well, cultured for 24 hours in complete growth medium, and then treated with various drugs and drug combinations for 72 hours. MTS/PMS was added and incubated for 4 hour, followed by assessment of cell viability using the microplate reader (absorbance at 490 nm). Data were normalized to untreated controls and analyzed with Microsoft Excel.

Rec-1 = assay: Anti Proliferation Assay (MTS), Rec-1; format: cell-based; details: Homo sapiens, Rec1, Rec-1 cells, 72 hours treatment
Description: as §1

Full-length inactive BTK, sequence (Q06187 whole entry): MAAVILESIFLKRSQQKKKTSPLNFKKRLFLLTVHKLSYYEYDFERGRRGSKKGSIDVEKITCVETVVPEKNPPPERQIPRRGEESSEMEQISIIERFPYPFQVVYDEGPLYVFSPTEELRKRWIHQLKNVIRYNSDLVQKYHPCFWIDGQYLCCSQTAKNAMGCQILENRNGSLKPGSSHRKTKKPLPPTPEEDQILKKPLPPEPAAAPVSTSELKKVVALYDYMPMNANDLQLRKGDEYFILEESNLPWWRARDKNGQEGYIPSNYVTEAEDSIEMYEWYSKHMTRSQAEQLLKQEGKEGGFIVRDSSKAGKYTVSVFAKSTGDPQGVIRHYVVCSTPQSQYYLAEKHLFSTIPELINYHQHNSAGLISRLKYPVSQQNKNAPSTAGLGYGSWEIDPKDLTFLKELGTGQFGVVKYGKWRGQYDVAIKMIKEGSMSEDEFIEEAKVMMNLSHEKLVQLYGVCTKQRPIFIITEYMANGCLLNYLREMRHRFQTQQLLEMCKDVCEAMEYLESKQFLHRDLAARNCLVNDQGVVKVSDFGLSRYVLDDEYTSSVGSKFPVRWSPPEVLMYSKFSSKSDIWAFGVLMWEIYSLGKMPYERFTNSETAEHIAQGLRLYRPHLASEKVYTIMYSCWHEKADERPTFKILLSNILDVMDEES
T1 sequence (Q06187 whole entry C481S): as the sequence (Q06187 whole entry) above, with C481S counted along it

| Compound | IC50 (Full-length inactive BTK) [µM] | BTK (C481S) (% inhibition) (Full-length BTKC481S) [%] | IC50 (TMD-8) [µM] | IC50 (Rec-1) [µM] |
| --- | --- | --- | --- | --- |
| CN(CC1COc2ccccc2O1)c1ncc2c3[nH]nc(N)c3c(=O)n(-c3ccccc3)c2n1 (stereo not shown) [Compound 223, 3-amino-7-[(2,3-dihydro-1,4-benzodioxin-2-ylmethyl)(methyl)amino]-5-phenyl-1,5-dihydro-4H-pyrazolo[3′,4′:4,5]pyrido[2,3-d]pyrimidin-4-one] | 0.038 | 98.2 | 11.3 | 6.2 |
| CN(C[C@H]1CN(C)c2ccccc2O1)c1ncc2c3[nH]nc(N)c3c(=O)n(-c3ccccc3F)c2n1 [Compound 342, 3-amino-5-(2-fluorophenyl)-7-(methyl{[(2R)-4-methyl-3,4-dihydro-2H-1,4-benzoxazin-2-yl]methyl}amino)-1,5-dihydro-4H-pyrazolo[3′,4′:4,5]pyrido[2,3-d]pyrimidin-4-one] | 0.011 | 101 | 0.7 | 2.6 |
| O=c1[nH]nc2c3cnc(NCC4COc5ccccc5O4)nc3n(-c3ccccc3)cc1-2 (stereo not shown) [Compound 356, 7-(((2,3-dihydrobenzo[b][1,4]dioxin-2-yl)methyl)amino)-5-phenyl-2H-pyrazolo[3′,′:4,5]pyrido[2,3-d]pyrimidin-3(5H)-one] | 0.33 | 53.7 | 23 | 18.5 |
| O=c1c2c[nH]nc2c2cnc(NCC3COc4ccccc4O3)nc2n1-c1ccccc1 (stereo not shown) [Compound 14, 7-(((2,3-dihydrobenzo[b][1,4]dioxin-2-yl)methyl)amino)-5-phenyl-2H-pyrazolo[3′,′:4,5]pyrido[2,3-d]pyrimidin-4(5H)-one] | 0.24 | 92.8 | 4 | 4.3 |
| Cc1[nH]nc2c1c(=O)n(-c1ccccc1)c1nc(NC[C@H]3COc4ccccc4O3)ncc21 [Compound 210, 7-{[(2S)-2,3-dihydro-1,4-benzodioxin-2-ylmethyl]amino}-3-methyl-5-phenyl-2,5-dihydro-4H-pyrazolo[3′,′:4,5]pyrido[2,3-d]pyrimidin-4-one] | 0.14 | 73.3 | 7.1 | 6.8 |
| O=c1c2c[nH]nc2c2cnc(NCC3CNc4ccccc4O3)nc2n1-c1ccccc1F (stereo not shown) [Compound 346, 7-[(3,4-dihydro-2H-1,4-benzoxazin-2-ylmethyl)amino]-5-(2-fluorophenyl)-2,5-dihydro-4H-pyrazolo[3′,4′:4,5]pyrido[2,3-d]pyrimidin-4-one] | 0.033 | 85.2 | 9.6 | 32 |
| CN1CC(CNc2ncc3c4n[nH]cc4c(=O)n(-c4ccccc4F)c3n2)Oc2ccccc21 (stereo not shown) [Compound 229, 5-(2-fluorophenyl)-7-(((4-methyl-3,4-dihydro-2H-benzo[b][1,4]oxazin-2-yl)methyl)amino)-2H-pyrazolo[3′,4′:4,5]pyrido[2,3-d]pyrimidin-4(5H)-one] | 0.034 | 99.2 | 1.4 | 2.6 |

Continued by falling IC50 (Full-length inactive BTK), values first:

| IC50 (Full-length inactive BTK) [µM] | BTK (C481S) (% inhibition) (Full-length BTKC481S) [%] | Compound | IC50 (TMD-8) [µM] | IC50 (Rec-1) [µM] |
| --- | --- | --- | --- | --- |
| 0.033 | 59 | Cc1c2c(=O)[nH]nc-2c2cnc(NC[C@H]3COc4ccccc4O3)nc2n1-c1ccccc1 [Compound 359, 7-{[(2S)-2,3-dihydro-1,4-benzodioxin-2-ylmethyl]amino}-4-methyl-5-phenyl-2,5-dihydro-3H-pyrazolo[3′,′:4,5]pyrido[2,3-d]pyrimidin-3-one] | 27 | 23.7 |
| 0.014 | 100 | CN1C[C@H](CNc2ncc3c4n[nH]cc4c(=O)n(-c4ccccc4F)c3n2)Oc2ccccc21 [Compound 343, 5-(2-fluorophenyl)-7-({[(2S)-4-methyl-3,4-dihydro-2H-1,4-benzoxazin-2-yl]methyl}amino)-2,5-dihydro-4H-pyrazolo[3′,4′:4,5]pyrido[2,3-d]pyrimidin-4-one] | 0.6 | 1.4 |
| 0.0046 | 36.1 | CN1C[C@H](CNc2ncc3c4[nH]nc(N)c4c(=O)n(-c4ccccc4)c3n2)Oc2cc(F)ccc21 [Compound 345, 3-amino-7-({[(2S)-7-fluoro-4-methyl-3,4-dihydro-2H-1,4-benzoxazin-2-yl]methyl}amino)-5-phenyl-1,5-dihydro-4H-pyrazolo[3′,4′:4,5]pyrido[2,3-d]pyrimidin-4-one] | 3.2 | 14.7 |
